Reference: the supplement of paper PMC4862054

What was measured:
BT-474 = test: normalised viability (% of control), CellTiter-Blue; higher = more viable cells (about 100 = DMSO control); conditions: 10000 nM; incubation time: 72 h
How it was run: (§1)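 The reported figure is normalised viability at a single listed concentration of the series. Breast cancer cell lines (20 µl suspension) went onto 384-well plates holding compound in 5 µl medium for 72 h. CellTiter-Blue (2.5 µl, 2 h, 37 °C) was read by fluorescence at 560/590 nm, and each plate was scaled to vehicle at 100 and a positive kill control at 0.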

BT-549 = test: as above; conditions: 10000 nM; incubation time: 72 h
How it was run: as §1

CAL-120 = test: as above; conditions: 10000 nM; incubation time: 72 h
How it was run: as §1

CAL-148 [1] = test: as above; conditions: 100 nM; incubation time: 72 h
How it was run: as §1

CAL-51 [2] = test: as above; conditions: 100 nM; incubation time: 72 h
How it was run: as §1

CAL-85-1 [3] = test: as above; conditions: 100 nM; incubation time: 72 h
How it was run: as §1

DU-4475 [4] = test: as above; conditions: 100 nM; incubation time: 72 h
How it was run: as §1

HCC1143 = test: as above; conditions: 10000 nM; incubation time: 72 h
How it was run: as §1

HCC1599 = test: as above; conditions: 10000 nM; incubation time: 72 h
How it was run: as §1

HCC1937 = test: as above; conditions: 10000 nM; incubation time: 72 h
How it was run: as §1

HDQ-P1 [5] = test: as above; conditions: 100 nM; incubation time: 72 h
How it was run: as §1

Hs578T = test: as above; conditions: 10000 nM; incubation time: 72 h
How it was run: as §1

MDA-MB-231 = test: as above; conditions: 10000 nM; incubation time: 72 h
How it was run: as §1

MDA-MB-436 = test: as above; conditions: 10000 nM; incubation time: 72 h
How it was run: as §1

MDA-MB-453 [6] = test: as above; conditions: 100 nM; incubation time: 72 h
How it was run: as §1

MDA-MB-468 = test: as above; conditions: 10000 nM; incubation time: 72 h
How it was run: as §1

MFM-223 [7] = test: as above; conditions: 10000 nM; incubation time: 72 h
How it was run: as §1

SK-BR-3 = test: as above; conditions: 10000 nM; incubation time: 72 h
How it was run: as §1

CAL-148 [8] = test: normalised viability (% of control), CellTiter-Blue; higher = more viable cells (about 100 = DMSO control); conditions: 300 nM; incubation time: 72 h
Experimental: (§2)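 DSRT, CellTiter-Blue viability, 72 h incubation. Signal is normalised to DMSO and benzethonium chloride controls. Value is the normalised response at dose 6.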

CAL-51 [9] = test: as above; conditions: 300 nM; incubation time: 72 h
Experimental: as §2

CAL-85-1 [10] = test: as above; conditions: 300 nM; incubation time: 72 h
Experimental: as §2

DU-4475 [11] = test: as above; conditions: 300 nM; incubation time: 72 h
Experimental: as §2

HDQ-P1 [12] = test: as above; conditions: 300 nM; incubation time: 72 h
Experimental: as §2

MDA-MB-453 [13] = test: as above; conditions: 300 nM; incubation time: 72 h
Experimental: as §2

CAL-148 [14] = test: as above; conditions: 10000 nM; incubation time: 72 h
Experimental: (§3)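 DSRT, CellTiter-Blue viability, 72 h incubation. Signal is normalised to DMSO and benzethonium chloride controls. Value is the normalised response at dose 9.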

CAL-51 [15] = test: as above; conditions: 10000 nM; incubation time: 72 h
Experimental: as §3

CAL-85-1 [16] = test: as above; conditions: 10000 nM; incubation time: 72 h
Experimental: as §3

DU-4475 [17] = test: as above; conditions: 10000 nM; incubation time: 72 h
Experimental: as §3

HDQ-P1 [18] = test: as above; conditions: 10000 nM; incubation time: 72 h
Experimental: as §3

CAL-148 [19] = test: normalised viability (% of control), CellTiter-Blue; higher = more viable cells (100 = DMSO, 0 = benzethonium chloride kill control); conditions: 1 nM; incubation time: 72 h
How it was run: as §1

CAL-51 [20] = test: as above; conditions: 1 nM; incubation time: 72 h
How it was run: as §1

MFM-223 [21] = test: as above; conditions: 1 nM; incubation time: 72 h
How it was run: as §1

Structure (SMILES) | normalised viability (BT-474) | normalised viability (BT-549) | normalised viability (CAL-120) | normalised viability (CAL-148 [1]) | normalised viability (CAL-51 [2]) | normalised viability (CAL-85-1 [3]) | normalised viability (DU-4475 [4]) | normalised viability (HCC1143) | normalised viability (HCC1599) | normalised viability (HCC1937) | normalised viability (HDQ-P1 [5]) | normalised viability (Hs578T) | normalised viability (MDA-MB-231) | normalised viability (MDA-MB-436) | normalised viability (MDA-MB-453 [6]) | normalised viability (MDA-MB-468) | normalised viability (MFM-223 [7]) | normalised viability (SK-BR-3) | normalised viability (CAL-148 [8]) | normalised viability (CAL-51 [9]) | normalised viability (CAL-85-1 [10]) | normalised viability (DU-4475 [11]) | normalised viability (HDQ-P1 [12]) | normalised viability (MDA-MB-453 [13]) | normalised viability (CAL-148 [14]) | normalised viability (CAL-51 [15]) | normalised viability (CAL-85-1 [16]) | normalised viability (DU-4475 [17]) | normalised viability (HDQ-P1 [18]) | normalised viability (CAL-148 [19]) | normalised viability (CAL-51 [20]) | normalised viability (MFM-223 [21])
CNNCc1ccc(C(=O)NC(C)C)cc1 [Procarbazine] | 113% | 89.5% | 88.2% | 99% | 96.4% | 89.2% | 91.3% | 93.6% | 90% | 81.7% | 109% | 114% | 109% | 81.5% | 109% | 112% | 97.8% | 106% | 101% | 105% | 100% | 83.2% | 97.5% | 101% | 97% | 102% | 85.1% | 85% | 124% | 108% | 100% | 102%
CN(C)C[C@@H]1CCn2cc(c3ccccc32)C2=C(C(=O)NC2=O)c2cn(c3ccccc23)CCO1 [Ruboxistaurin] | 3.5% | 43.7% | 38.9% | 111% | 88.8% | 115% | 95.6% | 94% | 58.1% | 35.1% | 83.1% | 42.9% | 27.6% | 29.2% | 93% | 8.88% | 30.1% | 4% | 99% | 91% | 106% | 82.2% | 48.4% | 104% | 24.3% | 27.4% | 84.3% | 1.01% | 22.5% | 126% | 98.9% | 104%
CN1CCN(CCOc2cc(OC3CCOCC3)c3c(Nc4c(Cl)ccc5c4OCO5)ncnc3c2)CC1 [Saracatinib] | 42.4% | 47.4% | 61.1% | 85.3% | 99.1% | 98% | 98.9% | 46.2% | 83.7% | 116% | 111% | 69.7% | 60.6% | 72.1% | 105% | 57.8% | 77.1% | 39.7% | 92.4% | 85.7% | 88.6% | 96.8% | 85.4% | 104% | 62% | 38.4% | 23.5% | 133% | 21.9% | 89.8% | 106% | 105%
